In brackets after ≈: the same amount, converted by molar mass. Several values for one entry are separate records, joined by “and”; a condition that tells them apart may be missing. Equal entries are not always repeated.
How the values were obtained:
Type in all cases: physicochemical
[1] = Particle size of KDR2-2 API before and after pulverization (Malvern); conditions: for Particle size Dv (10) / Particle size Dv (50) / Particle size Dv (90): dry method (Mastersizer 3000); for D10 (μm) / D50 (μm) / D90 (μm): listed as KDR2-2 API
Experimental: Particle sizes: KDR2-2 is a poorly soluble drug with large particle sizes. The drug substance should be micronized to meet the quality standards of KDR2-2 Suspension Eye Drop. The result of microscopic observation of KDR2-2 (Batch #CK0120554-02-03P-01-32-01) in 1% Kolliphor® HS 15 is shown in FIG. 1, and the particle sizes of KDR2-2 (Batch #CK0120554-02-03P-01-32-01) in 1% Kolliphor® HS 15 were measured by malvern and is presented in Table 4.
(§1) The drug particle size for suspension eye drops should be reduced to level <10 μm in an attempt to avoid excessive lacrimation, the micronization process of drug substance was studied. The micronization process parameters of the jet are: injection pressure is 5 bar; crushing pressure is 3 bar. The particle size and distribution of the KDR2-2 API were measured before and after pulverization, to determine whether the API satisfies the formulation requirements after pulverization.
as §1, with “studied. Certain amount of KDR2-2 API was taken and fed into a jet mill.” for “studied.”, “bar; the media for micronization is air.” for “bar.”, “was” for “were”, “pulverization using the dry method (Mastersizer 3000, Malvern),” for “pulverization,”

[2] = Solubility of KDR2-2 in different media
[3] = API content/purity by liquid chromatography before and after pulverization; conditions: for HPLC peak (percentage of peak area), Impurity 1: Impurity 1 = Intermediate A; for HPLC peak (percentage of peak area), Impurity 2: Impurity 2 = Intermediate B
Experimental: API content was determined by liquid chromatography, Diamonsil® plus-C18 column (4.6×150 mm, […]), mobile phase: acetonitrile (with 0.2‰ trifluoroacetic acid):water (with 0.2‰ trifluoroacetic acid), acetonitrile gradient 5-95%, time: 17 min, column temperature 20° C., detection wavelength 254 nm. The results are shown as follows and in FIGS. 5A-5B: […]

[4] = KDR2-2 API after micronization (jet mill)
[5] = KDR2-2 API before micronization
[6] = after pulverization (jet mill, 5 bar/3 bar)
[7] = before pulverization, in 1% Kolliphor® HS 15, batch CK0120554-02-03P-01-32-01

Q: With `Nc1nccc(Oc2ccc3c(C(=O)Nc4cccc(C(F)(F)F)c4)cccc3n2)n1` [KDR2-2, 2-(2-Aminopyrimidin-4-yloxy)-N-(3-(trifluoromethyl)phenyl)quinoline-5-carboxamide] as the compound, how does the “Particle size Dv (10)” value [1, 4] read?
A: The value was 0.304 μm.

Q: And the “Particle size Dv (50)” value [1, 4]?
A: The value was 1.75 μm.

Q: And the “Particle size Dv (90)” value [1, 4]?
A: The value was 3.83 μm.

Q: And the “Particle size Dv (10)” value [1, 5]?
A: Its value is 2.33 μm.

Q: And the “Particle size Dv (50)” value [1, 5]?
A: The value was 10.5 μm.

Q: And the “Particle size Dv (90)” value [1, 5]?
A: The value was 472 μm.

Q: What about the “D10 (μm)” value [1, 6] of the same compound?
A: Its value is 0.957 μm and 0.949 μm and 0.946 μm.

Q: What about the “D50 (μm)” value [1, 6] of the same compound?
A: Its value is 3.55 μm and 3.46 μm and 3.41 μm.

Q: And the “D90 (μm)” value [1, 6]?
A: The value was 8.03 μm and 7.59 μm and 7.47 μm.

Q: And the “D10 (μm)” value [1, 7]?
A: Its value is 55.9 μm and 33.0 μm and 45.5 μm.

Q: And the “D50 (μm)” value [1, 7]?
A: Its value is 162 μm and 105 μm and 138 μm.

Q: What about the “D90 (μm)” value [1, 7] of the same compound?
A: Its value is 375 μm and 292 μm and 353 μm.

Q: And the solubility ([2]; acetone, organic solvent or mixture)?
A: The solubility was 7700 to 11500 µg/mL (≈ 18.1 to 27 mM).

Q: What about the solubility ([2]; acetone/water, aqueous with cosolvent or surfactant or cyclodextrin) of the same compound?
A: Its solubility is 7300 to 11000 µg/mL (≈ 17.2 to 25.9 mM).

Q: What about the solubility ([2]; acetonitrile, organic solvent or mixture) of the same compound?
A: Its solubility is 1700 to 1900 µg/mL (≈ 4 to 4.47 mM).

Q: And the solubility ([2]; chloroform, organic solvent or mixture)?
A: Its solubility is < 1100 µg/mL.

Q: And the solubility ([2]; dimethylsulfoxide, organic solvent or mixture)?
A: The solubility was > 28000 µg/mL.

Q: What about the solubility ([2]; ethanol, organic solvent or mixture) of the same compound?
A: Its solubility is 2400 to 2700 µg/mL (≈ 5.64 to 6.35 mM).

Q: And the solubility ([2]; ethyl acetate, organic solvent or mixture)?
A: The solubility was 3800 to 4600 µg/mL (≈ 8.93 to 10.8 mM).

Q: And the solubility ([2]; iso-propyl alcohol, organic solvent or mixture)?
A: The solubility was < 1100 µg/mL.

Q: What about the solubility ([2]; methanol, organic solvent or mixture) of the same compound?
A: Its solubility is 6300 to 9500 µg/mL (≈ 14.8 to 22.3 mM).

Q: And the solubility ([2]; methyl isobutyl ketone, organic solvent or mixture)?
A: The solubility was 1800 to 2200 µg/mL (≈ 4.23 to 5.17 mM).

Q: What about the solubility ([2]; methyl tert-butyl ether, organic solvent or mixture) of the same compound?
A: Its solubility is < 1200 µg/mL.

Q: And the solubility ([2]; tetrahydrofuran, organic solvent or mixture)?
A: The solubility was > 18000 µg/mL.

Q: What about the solubility ([2]; toluene, organic solvent or mixture) of the same compound?
A: Its solubility is < 900 µg/mL.

Q: What about the solubility ([2]; water) of the same compound?
A: The solubility was < 1100 µg/mL.

Q: And the “HPLC peak (percentage of peak area), KDR2-2” value ([3]; KDR2-2 API after micronization)?
A: Its value is “Peak area % = 99.839%”.

Q: And the “HPLC peak (percentage of peak area), Impurity 1” value ([3]; KDR2-2 API after micronization)?
A: Its value is “Peak area % = 0.085%”.

Q: And the “HPLC peak (percentage of peak area), Impurity 2” value ([3]; KDR2-2 API after micronization)?
A: The value was “Peak area % = 0.075%”.

Q: What about the “HPLC peak (percentage of peak area), KDR2-2” value [3, 5] of the same compound?
A: Its value is “Peak area % = 99.820%”.

Q: What about the “HPLC peak (percentage of peak area), Impurity 1” value [3, 5] of the same compound?
A: Its value is “Peak area % = 0.08%”.

Q: And the “HPLC peak (percentage of peak area), Impurity 2” value [3, 5]?
A: Its value is “Peak area % = 0.101%”.

Source: US12721809B2, “Formulation for treating ophthalmic conditions” (Guangzhou KangRui Biological Pharmaceutical Technology Co., …, priority 2021, dated 2026)
